Results reported in patent US4413009A, “N-((Alkylamino)carbonyl)-N-(((alkylamino)carbonyl)oxy)acylamides with antineoplastic activity” (priority 1982, dated 1983).

How the values were obtained:
HeLa cells = test: HeLa cell colony cytotoxicity / growth inhibition test; format: cell-based, human; conditions: 8 days, 0-50 μg/ml
Protocol: HeLa cells were seeded in 24-well tissue culture plates at a concentration of 30 cells per well in 1 ml of growth medium (Eagle's minimum essential medium with 5 percent HIFCS). The plates were incubated at 36° C. for 24 hours after which the growth medium was removed. The cells were resuspended in 1 ml of fresh growth medium described above together with a measured quantity of (0-50 μg/ml) of one of the compounds of this invention. The 0 μg/ml concentration served as a control. The tissue culture plates were then incubated at 36° C. for 8 days at which time the medium was removed and the cells were fixed and stained with 0.1% crystal violet in 20% ethanol. The HeLa cell colonies were counted macroscopically, and comparisons of colony size in treated and control wells were made. Test compounds were considered cytotoxic at concentrations which reduced the number of HeLa cell colonies compared to control by 50% or more. Test compounds of the invention were considered to cause HeLa cell growth inhibition at concentrations which reduced the size of colonies by a measurable amount when compared to control.

P388 leukemia = test: Antineoplastic activity against P388 lymphocytic leukemia in mice (IP), survival time and toxicity day survivors; format: in vivo, mice (CDF1); conditions: for Toxicity Day Survivors: survivors/started
Protocol: (A) Test mice (CDF1 mice) were injected intraperitoneally (IP) with ascitic fluid containing 10^6 cells of P388 lymphocytic leukemia. The test compound was administered in a sialine -Tween 80 carrier at the appropriate dosage, IP daily for 9 days; the initial treatment performed the first day after tumor inoculation. Control mice received no compound.

[1] = system: MX-1 human breast xenograft; test: Activity against MX-1 human breast xenograft in subrenal capsule of athymic mice, tumor size change and toxicity day survivors; format: in vivo, human (xenograft in athymic Swiss Nu/Nu mice); conditions: survivors/started
Protocol: (B) A tumor fragment (MX-1 human breast xenograft) having a diameter of between 9 and 12 ocular micrometer units (OMU) (approximately 1×1×1 millimeter) was implanted and measured in situ in the subrenal capsule of athymic Swiss (Nu/Nu Swiss) mice. The appropriate dosage of the test compound in a saline carrier was administered by subcutaneous injection once daily for 10 days; the initial treatment was performed on the first day after tumor implant. No test compound was administered to the control mice. Test mice were sacrificed on the eleventh day and tumor size noted. The change in tumor diameter (from day 0 (implant day) to day 11 (sacrifice day)) as compared with the tumor size of the control was used as an evaluation of tumor growth or regression.

[2] = Experiment No. 1, 50.00 mg/kg per injection IP daily for 9 days
[3] = Experiment No. 2, 12.50 mg/kg per injection IP daily for 9 days
[4] = Experiment No. 2, 25.00 mg/kg per injection IP daily for 9 days
[5] = Experiment No. 2, 50.00 mg/kg per injection IP daily for 9 days

In the case of `CNC(=O)ON(C(C)=O)C(=O)NC` [Example 1, N-((Methylamino)carbonyl)-N-(((methylamino)carbonyl)oxy)acetamide], the “Cell Growth Inhibition: concentration at which the size of the HeLa colonies were reduced by a measurable amount (as compared to control)” value (HeLa cells) is reported as 12.5 µg/mL, the “median survival time of the test animals (in words)” value (P388 leukemia; 50 mg/kg per injection, one experiment) is reported as “increased the median survival time” and the “median survival time of the test animals (in words)” value (P388 leukemia; 12.50, 25 and 50 mg/kg per injection, another experiment) is reported as “increased the median survival time”. The “T/C % (median survival time, treated vs control)” value (P388 leukemia; [2]) was 142%, the “Toxicity Day Survivors” value (P388 leukemia; [2]) was 06/06 and the “Toxicity Day Survivors” value (P388 leukemia; Experiment No. 1, 100.00 mg/kg per injection IP daily for 9 days) was 01/06. The “Toxicity Day Survivors” value (P388 leukemia; Experiment No. 1, 200.00 mg/kg per injection IP daily for 9 days) was 00/06, the “T/C % (median survival time, treated vs control)” value (P388 leukemia; [3]) was 131% and the “Toxicity Day Survivors” value (P388 leukemia; [3]) was 06/06. The “T/C % (median survival time, treated vs control)” value (P388 leukemia; [4]) was 126%, the “Toxicity Day Survivors” value (P388 leukemia; [4]) was 06/06 and the “T/C % (median survival time, treated vs control)” value (P388 leukemia; [5]) was 141%. For the same compound, the “Toxicity Day Survivors” value (P388 leukemia; [5]) was 06/06, the “Toxicity Day Survivors” value (P388 leukemia; Experiment No. 2, 100.00 mg/kg per injection IP daily for 9 days) was 03/06 and the “median survival time of the test mice afflicted with P388 leukemia (in words)” value (P388 leukemia; Table 3 data) was “increased the median survival time”. For the same compound, the “Toxicity Day Survivors” value ([1]; Experiment 1, 12.5 mg/kg s.c. daily for 10 days) was 03/03, the “Toxicity Day Survivors” value ([1]; Experiment 1, 25 mg/kg s.c. daily for 10 days) was 03/03 and the “Toxicity Day Survivors” value ([1]; Experiment 1, 50 mg/kg s.c. daily for 10 days) was 03/03. For the same compound, the “Toxicity Day Survivors” value ([1]; Experiment 1, 100 mg/kg s.c. daily for 10 days) was 01/03, the “Toxicity Day Survivors” value ([1]; Experiment 2, 25 mg/kg s.c. daily for 10 days) was 06/06 and the “Toxicity Day Survivors” value ([1]; Experiment 2, 50 mg/kg s.c. daily for 10 days) was 06/06. For the same compound, the “Toxicity Day Survivors” value ([1]; Experiment 2, 100 mg/kg s.c. daily for 10 days) was 06/06, the “Toxicity Day Survivors” value ([1]; Experiment 2, 200 mg/kg s.c. daily for 10 days) was 05/06 and the “Toxicity Day Survivors” value ([1]; Experiment 3, 25 mg/kg s.c. daily for 10 days) was 06/06. The “Toxicity Day Survivors” value ([1]; Experiment 3, 50 mg/kg s.c. daily for 10 days) was 06/06, the “Toxicity Day Survivors” value ([1]; Experiment 3, 100 mg/kg s.c. daily for 10 days) was 06/06 and the “Toxicity Day Survivors” value ([1]; Experiment 3, 200 mg/kg s.c. daily for 10 days) was 00/06. The “Toxicity Day Survivors” value ([1]; Experiment 4, 25 mg/kg s.c. daily for 10 days) was 03/03, the “Toxicity Day Survivors” value ([1]; Experiment 4, 50 mg/kg s.c. daily for 10 days) was 02/02 and the “Toxicity Day Survivors” value ([1]; Experiment 4, 100 mg/kg s.c. daily for 10 days) was 03/03. For the same compound, the “Toxicity Day Survivors” value ([1]; Experiment 4, 200 mg/kg s.c. daily for 10 days) was 01/03.
In the case of `O=C(Nc1ccccc1)ON(C(=O)Nc1ccccc1)C(=O)C1CC1` [Example 28, N-((Phenylamino)carbonyl)-N-(((phenylamino)carbonyl)oxy)cyclopropanecarboxamide], the “Cell Growth Inhibition: concentration at which the size of the HeLa colonies were reduced by a measurable amount (as compared to control)” value (HeLa cells) is reported as 50 µg/mL.
In the case of `O=C(NC1CCCCC1)ON(C(=O)NC1CCCCC1)C(=O)C1CC1` [Example 29, N-((Cyclohexylamino)carbonyl)-N-(((cyclohexylamino)carbonyl)oxy)cyclopropanecarboxamide], the “Cell Growth Inhibition: concentration at which the size of the HeLa colonies were reduced by a measurable amount (as compared to control)” value (HeLa cells) is reported as 12.5 µg/mL.
In the case of `CNC(=O)ON(C(=O)NC)S(C)(=O)=O` [Example 30, N-((Methylamino)carbonyl)-N-(((methyl-amino)carbonyl)oxy)methanesulfamide], the “Cell Growth Inhibition: concentration at which the size of the HeLa colonies were reduced by a measurable amount (as compared to control)” value (HeLa cells) is reported as 3.1 µg/mL.
`CCNC(=O)ON(C(=O)NCC)S(C)(=O)=O` [Example 31, N-((Ethylamino)carbonyl)-N-(((ethylamino)-carbonyl)oxy)-methanesulfamide] was tested, and the “Cell Growth Inhibition: concentration at which the size of the HeLa colonies were reduced by a measurable amount (as compared to control)” value (HeLa cells) was 3.1 µg/mL.
